From EP4671247A1, “SUBSTITUTED PYRAZOLOPYRIMIDINE COMPOUND AND PHARMACEUTICAL USE THEREOF” (Japan Tobacco Inc., priority 2023, dated 2024)

Molecular target: T1, NLRP3 inflammasome (Homo sapiens, UniProt Q96P20)
T1 construct: host or cells: THP1-Null cells (PMA-differentiated, LPS-primed, nigericin-stimulated)
Test: Evaluation of NLRP3 inflammasome inhibitory activity (inhibition of IL-1β production in LPS/Nigericin-stimulated THP1-Null cells, AlphaLISA)
Format: cell-based
Details: IC50, IL-1β production in THP1-Null cells; PMA, 1 µg/mL Lipopolysaccharides 3 hours, Nigericin 7.5 µmol/L 1.5 hours
Method: The NLRP3 inflammasome inhibitory activity of test compounds were evaluated on the basis of the inhibitory activity of the IL-1β production in THP1-Null cells (Product Number: thp-null, InvivoGen).
The supernatant of the culture was removed, and thereto was added media for assay (25 µL/well) containing 1 µg/mL Lipopolysaccharides (Product Number: L2654, Sigma-Aldrich (registered trademark)). […] The supernatant of the culture was removed. […] A solution containing a test compound (20 µL/well) was added to test compound-setting wells. […] The supernatant of the culture was cryonically stored (set at -20°C) until measurement of IL-1β.
The amount of IL-1β in the culture supernatant was quantitated with AlphaLISA (registered trademark) Human IL-1β Detection Kit (Product Number: AL220C, Perkin Elmer). Fluorescence intensity was measured with a microplate reader EnSpier (Model number: 2300-00J, Perkin Elmer) or EnSight (Model number: HH34000000, Perkin Elmer) according to procedure manuals attached thereto. Inhibition rates of the test compound-setting wells were calculated on the basis of 100% for the blank-setting wells and 0% for the control-setting wells.

T1 sequence (Q96P20 whole entry): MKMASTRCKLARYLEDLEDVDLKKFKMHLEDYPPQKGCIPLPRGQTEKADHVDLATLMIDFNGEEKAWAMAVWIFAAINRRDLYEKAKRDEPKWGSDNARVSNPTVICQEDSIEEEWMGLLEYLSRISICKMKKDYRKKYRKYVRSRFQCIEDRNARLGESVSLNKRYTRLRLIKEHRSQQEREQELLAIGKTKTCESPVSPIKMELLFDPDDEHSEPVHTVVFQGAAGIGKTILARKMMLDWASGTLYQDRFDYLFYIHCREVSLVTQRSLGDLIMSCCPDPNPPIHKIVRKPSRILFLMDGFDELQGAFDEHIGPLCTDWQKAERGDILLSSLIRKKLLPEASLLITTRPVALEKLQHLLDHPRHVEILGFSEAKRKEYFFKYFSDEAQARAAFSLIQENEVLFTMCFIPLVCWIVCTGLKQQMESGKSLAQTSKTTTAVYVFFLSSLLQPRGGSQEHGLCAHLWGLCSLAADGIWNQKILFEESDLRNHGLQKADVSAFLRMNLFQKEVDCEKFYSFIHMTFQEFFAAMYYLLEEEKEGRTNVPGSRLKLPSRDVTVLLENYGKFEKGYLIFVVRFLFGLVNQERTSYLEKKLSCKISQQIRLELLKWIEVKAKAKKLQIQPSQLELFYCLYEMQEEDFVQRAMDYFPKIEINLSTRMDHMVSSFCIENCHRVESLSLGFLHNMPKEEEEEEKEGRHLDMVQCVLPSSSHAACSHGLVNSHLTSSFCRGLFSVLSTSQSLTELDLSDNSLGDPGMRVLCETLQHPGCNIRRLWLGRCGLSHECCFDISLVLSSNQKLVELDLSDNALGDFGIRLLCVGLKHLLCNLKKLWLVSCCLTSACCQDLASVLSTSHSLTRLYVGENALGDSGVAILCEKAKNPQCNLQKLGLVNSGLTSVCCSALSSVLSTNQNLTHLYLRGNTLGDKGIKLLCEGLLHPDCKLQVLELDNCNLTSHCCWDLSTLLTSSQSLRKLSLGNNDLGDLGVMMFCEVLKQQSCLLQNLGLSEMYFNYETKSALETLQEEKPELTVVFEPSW

Row | SMILES | IC50 [nM]
1 | Cc1nc2nn(-c3c(C)cc(Br)cc3C)cc2c(=O)[nH]1 [Example 18] | 220
2 | Cc1cc(Br)cc(C)c1-n1cc2c(=O)[nH]c(C34CC(C3)C4)nc2n1 [Example 60] | 60
3 | Cc1cc(C2CC2)cc(C)c1-n1cc2c(=O)[nH]c([C@@H]3C[C@H]3C#N)nc2n1 (racemic) [Example 152] | 12
4 | Cc1cc(C2CC2)cc(C)c1-n1cc2c(=O)[nH]c(C3CC4CCN3CC4)nc2n1 (racemic) [Example 119] | 31

Same assay, conditions: IL-1β production in THP1-Null cells; PMA, 1 µg/mL Lipopolysaccharides 3 hours, Nigericin 7.5 µmol/L 1.5 hours

Row | SMILES | IC50 [nM]
5 | COC1CC(c2nc3nn(-c4c(C)cc(Br)cc4C)cc3c(=O)[nH]2)C1 (single isomer, unassigned) [Example 121] | 38
6 | Cc1cc(Br)cc(C)c1-n1cc2c(=O)[nH]c(C3CC3F)nc2n1 (centres unmarked) [Example 92] | 7
7 | Cc1cc(C(C)(F)F)cc(C)c1-n1cc2c(=O)[nH]c(C3CCOCCO3)nc2n1 (single isomer, unassigned) [Example 187] | 67
8 | Cc1cc(C(C)(F)F)cc(C)c1-n1cc2c(=O)[nH]c(C3CCOCCO3)nc2n1 (single isomer, unassigned) [Example 188] | 190
9 | Cc1cc(OC(F)F)cc(C)c1-n1cc2c(=O)[nH]c(C3CCOCC3F)nc2n1 (single isomer, unassigned) [Example 176] | 75
10 | Cc1cc(OC(F)F)cc(C)c1-n1cc2c(=O)[nH]c([C@@H]3C[C@H]3F)nc2n1 (racemic) [Example 171] | 24
11 | Cc1cc(C2CC2)cc(C)c1-n1cc2c(=O)[nH]c(C(C)O)nc2n1 (single isomer, unassigned) [Example 156] | 13

Same assay, conditions: IL-1β production in THP1-Null cells; PMA, 1 µg/mL Lipopolysaccharides 3 hours, Nigericin 7.5 µmol/L 1.5 hours; read-out: IC50

Row | SMILES | IC50 [nM]
12 | Cc1cc(Br)cc(C)c1-n1cc2c(=O)[nH]c(C3CCC(F)(F)CO3)nc2n1 (racemic) [Example 191] | 72
13 | Cc1cc(C2CC2)cc(C)c1-n1cc2c(=O)[nH]c(C#N)nc2n1 [Example 199] | 240
14 | Cc1cc(C2CC2)cc(C)c1-n1cc2c(=O)[nH]c(COC(F)F)nc2n1 [Example 145] | 13
15 | Cc1cc(OC(F)F)cc(C)c1-n1cc2c(=O)[nH]c(C3(F)CC3)nc2n1 [Example 159] | 57
16 | Cc1cc(OC(F)F)cc(C)c1-n1cc2c(=O)[nH]c([C@@H](C)O)nc2n1 (single isomer, unassigned) [Example 165] | 75
17 | COCc1cc(C2CC2)cc(C)c1-n1cc2c(=O)[nH]c(C3CC3)nc2n1 [Example 58] | 36
18 | Cc1cc(Br)cc(C)c1-n1cc2c(=O)[nH]c(C3CC3C#N)nc2n1 (racemic) [Example 151] | 17
19 | Cc1cc(C2CC2)cc(C)c1-n1cc2c(=O)[nH]c(C3CC3(F)F)nc2n1 (racemic) [Example 114] | 17
20 | Cc1cc(Br)cc(C)c1-n1cc2c(=O)[nH]c(C3(F)CCC3)nc2n1 [Example 68] | 76
21 | Cc1cc(C2CC2)cc(C)c1-n1cc2c(=O)[nH]c(C3CC3)nc2n1 [Example 21] | 12
22 | Cc1cc(OC(F)F)cc(C)c1-n1cc2c(=O)[nH]c(CC3CC3)nc2n1 [Example 164] | 67
23 | Cc1cc(Br)cc(C)c1-n1cc2c(=O)[nH]c(CN3CCCCC3)nc2n1 [Example 112] | 140
24 | Cc1cc(C(C)(F)F)cc(C)c1-n1cc2c(=O)[nH]c([C@H](C)O)nc2n1 (single isomer, unassigned) [Example 155] | 610
25 | Cc1cc(OC(F)F)cc(C)c1-n1cc2c(=O)[nH]c(C3CCN(C)CC3)nc2n1 [Example 90] | 68
26 | COCc1nc2nn(-c3c(C)cc(C4CC4)cc3C)cc2c(=O)[nH]1 [Example 43] | 42
27 | Cc1cc(C2CC2(F)F)cc(C)c1-n1cc2c(=O)[nH]c(C3CC3(F)F)nc2n1 (centres unmarked) [Example 103] | 64
28 | Cc1cc(C(C)(F)F)cc(C)c1-n1cc2c(=O)[nH]c(C3(F)COC3)nc2n1 [Example 116] | 280
29 | Cc1cc(C2CC2)cc(C)c1-n1cc2c(=O)[nH]c(C3CCOCCO3)nc2n1 (racemic) [Example 163, (RS)-2-(4-cyclopropyl-2,6-dimethylphenyl)-6-(1,4-dioxepan-5-yl)-2,5-dihydro-4H-pyrazolo[3,4-d]pyrimidin-4-one] | 23
30 | Cc1ccc(-n2cc3c(=O)[nH]c(C4CCCO4)nc3n2)c(C)c1 (racemic) [Example 31] | 790
31 | Cc1ccc(-n2cc3c(=O)[nH]c(CC(C)C)nc3n2)c(C)c1 [Example 6] | 430
32 | Cc1cc(Br)cc(C)c1-n1cc2c(=O)[nH]c(C3(F)CCOCC3)nc2n1 [Example 97] | 24
33 | Cc1cc(OC(F)F)cc(C)c1-n1cc2c(=O)[nH]c(C3CC3(F)F)nc2n1 (racemic) [Example 133] | 41
34 | Cc1cc(Br)cc(C)c1-n1cc2c(=O)[nH]c(C3=CCOCC3)nc2n1 [Example 102] | 8
35 | COC(C)c1nc2nn(-c3c(C)cc(C4CC4)cc3C)cc2c(=O)[nH]1 (racemic) [Example 41] | 93
36 | Cc1cc(C(C)(F)F)cc(C)c1-n1cc2c(=O)[nH]c(COC(F)F)nc2n1 [Example 202] | 40
37 | Cc1cc(Br)cc(C)c1-n1cc2c(=O)[nH]c(C(C)O)nc2n1 (racemic) [Example 137] | 24
38 | Cc1cc(Br)cc(C)c1-n1cc2c(=O)[nH]c([C@H]3CCOCCO3)nc2n1 [Example 185] | 23
39 | Cc1cc(C2CC2)cc(C)c1-n1cc2c(=O)[nH]c(C(=O)N(C)C)nc2n1 [Example 195] | 180

Row | SMILES | IC50 [nM]
40 | Cc1ccc(-n2cc3c(=O)[nH]c(C4CCOCC4)nc3n2)c(C)c1 [Example 33] | 68
41 | Cc1cc(Br)cc(C)c1-n1cc2c(=O)[nH]c(C3CC(F)(F)CCO3)nc2n1 (racemic) [Example 184] | 51
42 | Cc1cc(C2CC2)cc(C)c1-n1cc2c(=O)[nH]c(C(C)F)nc2n1 (racemic) [Example 128] | 44
43 | Cc1cc(C(C)(F)F)cc(C)c1-n1cc2c(=O)[nH]c(C3=CCOCC3)nc2n1 [Example 153] | 17
44 | Cc1cc(C2CC2)ccc1-n1cc2c(=O)[nH]c(C3CC3)nc2n1 [Example 24] | 47
45 | Cc1ccc(-n2cc3c(=O)[nH]c(C4CCO4)nc3n2)c(C)c1 (racemic) [Example 35] | 2100
46 | CCc1nc2nn(-c3c(C)cc(C(C)(F)F)cc3C)cc2c(=O)[nH]1 [Example 181] | 18
47 | CCc1nc2nn(-c3c(C)cc(C4CC4)cc3C)cc2c(=O)[nH]1 [Example 23] | 24
48 | Cc1cc(Br)cc(C)c1-n1cc2c(=O)[nH]c(C3CC3C(=O)N(C)C)nc2n1 (racemic) [Example 149] | 22
49 | Cc1cc(C2CC2)cc(F)c1-n1cc2c(=O)[nH]c(C3CC3)nc2n1 [Example 20] | 13
50 | O=c1[nH]c(C2CC2)nc2nn(-c3cc4c(cc3Cl)OCCC4)cc12 [Example 211] | 27
51 | Cc1cc(C(F)(F)F)cc(C)c1-n1cc2c(=O)[nH]c(C3CC3)nc2n1 [Example 55] | 31
52 | Cc1cc(C2CC2)cc(C)c1-n1cc2c(=O)[nH]c(CO)nc2n1 [Example 105] | 13
53 | Cc1cc(Br)cc(C)c1-n1cc2c(=O)[nH]c(C(C)(C)F)nc2n1 [Example 70] | 130
54 | Cc1cc(Br)cc(C)c1-n1nc2nc(C3CCOCC3)[nH]c(=O)c2c1C(F)F [Example 82] | 16
55 | Cc1c(-n2cc3c(=O)[nH]c(C4CC4)nc3n2)c(C(F)(F)F)nn1C(C)C [Example 61] | 460
56 | Cc1cc(Br)cc(C)c1-n1cc2c(=O)[nH]c(C3(F)COC3)nc2n1 [Example 108] | 49
57 | Cc1cc(C2CC2)cc(C)c1-n1cc2c(=O)[nH]c(C3CC(F)(F)CO3)nc2n1 (racemic) [Example 190] | 41
58 | Cc1cc(C2CC2)cc(C)c1-n1cc2c(=O)[nH]c(CCO)nc2n1 [Example 106] | 28
59 | Cc1cc(OC(F)F)cc(C)c1-n1cc2c(=O)[nH]c(C3(O)CCOCC3F)nc2n1 (single isomer, unassigned) [Example 174] | 30
60 | Cc1cc(C2CC2)cc(F)c1-n1cc2c(=O)[nH]c(C3(F)CCOCC3)nc2n1 [Example 110] | 19
61 | COCC(O)Cc1nc2nn(-c3c(C)cc(C4CC4)cc3C)cc2c(=O)[nH]1 (racemic) [Example 143] | 86
62 | COC(Cc1nc2nn(-c3c(C)cc(Br)cc3C)cc2c(=O)[nH]1)C(F)(F)F (racemic) [Example 127] | 73
63 | Cc1cc(C2CC2)cc(C)c1-n1cc2c(=O)[nH]c(C3CCO3)nc2n1 (racemic) [Example 36] | 150
64 | CNC(=O)c1nc2nn(-c3c(C)cc(C(C)(F)F)cc3C)cc2c(=O)[nH]1 [Example 207] | 270
65 | Cc1cc(C2CC2)cc(C)c1-n1cc2c(=O)[nH]c(C3(F)CCC3)nc2n1 [Example 69] | 67
66 | Cc1ccc(-n2cc3c(=O)[nH]c(C4CCS(=O)(=O)C4)nc3n2)c(C)c1 (racemic) [Example 32] | 270

Same assay, conditions: test compound at 2.4 µM; IL-1β production in THP1-Null cells

Row | SMILES | inhibition at 2.4 µM [%]
67 | Cc1ccc(-n2cc3c(=O)[nH]c(CN4CCOCC4)nc3n2)c(C)c1 [Example 38] | 40

Same assay, conditions: test compound at 24 µM; IL-1β production in THP1-Null cells

Row | SMILES | inhibition at 24 µM [%]
68 | Cc1ccc(-n2cc3c(=O)n(C)c(C)nc3n2)c(C)c1 [Example 13, 2-(2,4-dimethylphenyl)-5,6-dimethyl-2,5-dihydro-4H-pyrazolo[3,4-d]pyrimidin-4-one] | 3
